Results on four compounds are retold here after EP0101641A2, “Sulfonylamino-aza-bicyclo-alkyl derivatives” (BEECHAM GROUP PLC, priority 1982, dated 1984).

Holding throughout (assay type): in vivo
One assay concerns vomiting response. Description: Anti-emetic activity in the dog (apomorphine-induced vomiting). Details: key to Anti-emetic: A = active; IA = inactive. To be noted: for ED50: Canis lupus familiaris, sc, s.c. 30 minutes before apomorphine HC1 0.1 mg/kg s.c.; for Anti-emetic: at 0.1 mg/kg s.c., 30 minutes before apomorphine HC1 0.1 mg/kg s.c. The method, then: Anti-emetic activity in the dog
Compounds were administered subcutaneously 30 minutes prior to administration of a standard dose of apomorphine HC1 (0.1 mg/kg subcutaneously) and the vomiting response compared to that obtained when the same animals were dosed with apomorphine HC1 and vehicle only.

For the next assay, the system named is Dopamine Receptor. Description: Inhibition of apomorphine induced climbing in the mouse (central dopamine receptor blocking activity). Details: key to CNS (Climbing): A = active; IA = inactive. To be noted: apomorphine 1mg/kg s.c.
In the next assay the test system is intragastric pressure. In words: Increase in intragastric pressure (peripheral dopamine blockade) in conscious restrained rats. Details: key: A = active; IA = inactive. As to conditions: rat. The method, then: Increase in intragastric pressure - peripheral dopamine blockade
Intragastric pressure changes were recorded from previously starved conscious but restrained rats using a saline filled catheter inserted into the lumen of the stomach via a permanent gastric fistula. The catheter was connected to a physiological pressure transducer and pressure changes recorded on a hot wire pen recorder. In each animal a pre-dose period of 40 minutes was allowed to obtain a measure of spontaneous activity. An index of activity was obtained by measuring the average height of pressure waves during 10 minute periods. Values for 4 such periods were obtained during assessment of spontaneous activity and for 40 minute period after administration of compound. Student's "T" test was applied to the difference in average values obtained for spontaneous and post compound activity.

One may read the ED50 as the dose that gives a 50% effect, or the effect in half of the subjects. As for `COc1cc(NS(C)(=O)=O)c(Cl)cc1C(=O)N[C@@H]1C[C@H]2CC[C@@H](C1)N2Cc1ccccc1` [Compound 1, 4-MethanGsulphonamJdo-5-ch3oro-2-methoxy-N-[3P-(8-benzyl-8-azabicyclo{3.2.1)octyl)]benzainide], it took a dose of 0.02 mg/kg to reach the 50% effect level in the assay on vomiting response (ED50). Besides, in the assay on Dopamine Receptor, the “CNS (Climbing) ED50” value is on record as “ED50 0.2 mg/kg s.c”. Further, the “IG Pressure (Basal)” value in the assay on intragastric pressure (at 1.0 mg/kg s.c.) is recorded as “A at 1.0”.

In turn, `COc1cc(NS(C)(=O)=O)ccc1C(=O)N[C@@H]1C[C@H]2CC[C@@H](C1)N2Cc1ccccc1` [Compound 2, 4-methanesulphonamido-2-methoxy-N-[3β-(8-benzyl-8-azabicyclo(3.2.1)octyl)]benzamide] registered an ED50 with vomiting response of 0.1 mg/kg. Also, the “CNS (Climbing)” value with Dopamine Receptor (at 10 mg/kg s.c.) is reported as “A at 10”. Also, the “IG Pressure (Basal)” value in the assay with intragastric pressure (at 1.0 mg/kg s.c.) is “IA at 1.0”.

For the compound `COc1cc(NS(C)(=O)=O)c(S(C)(=O)=O)cc1C(=O)N[C@@H]1C[C@H]2CC[C@@H](C1)N2Cc1ccccc1` [Compound 6, 4-Methanesulphonamido-2-methoxy-5-methylsulphonyl-N-[3β-{8-benzy1-8-azabicyclo(3.2.1)octyl)]benzamide], in the assay on vomiting response, the Anti-emetic entry is “A at 0.1”. Also, the “CNS (Climbing)” value in the assay on Dopamine Receptor (at 50 mg/kg s.c.) is listed as “IA at 50”. The “IG Pressure (Basal)” value with intragastric pressure (at 5.0 mg/kg s.c.) is “IA at 5.0”.

In the case of “5-hlethanesu-lphonylamido-2-rnethoxy-3-methyl-N-[3a-[8-benzyl-8-azabicyclo(3.2.1)octyl}]benzamide [Compound 10]”, in the assay on vomiting response, the Anti-emetic result is listed as “A at 0.1”. Further, the “IG Pressure (Basal)” value in the assay with intragastric pressure (at 1.0 mg/kg s.c.) is “A at 1.0”.
